Test results from patent US6737383B1, “Herbicidal oxadiazolidines” (priority 1999, dated 2004).

Tests used:
goosegrass = assay: Test D goosegrass; type: in vivo, Eleusine indica; details: Preemergence, 0 to 100 scale
Summary of the method: (§1)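 Greenhouse pots, sandy loam, single species per pot. Preemergence tests: soil-surface application ≤1 day after planting. Compound formulated in non-phytotoxic solvent with surfactant. Visual rating 14–21 DAT, scale 0–100.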

Italian ryegrass = assay: Test E Italian ryegrass; type: in vivo, Lolium multiflorum; details: Preemergence
sandbur = assay: Test D sandbur; type: in vivo, Cenchrus echinatus; details: Preemergence, 0 to 100 scale
Summary of the method: as §1

duck salad = assay: Test B flood test duck salad; type: in vivo, Heteranthera limosa
Summary of the method: (§2)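 Flood test on plants grown to the 2-leaf stage; treated plants kept in greenhouse twelve to sixteen days, then visually rated against controls on a 0 (no effect) to 10 (complete control) scale.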

purple nutsedge = assay: Test D purple nutsedge; type: in vivo, Cyperus rotundus; details: Preemergence, 0 to 100 scale
Summary of the method: as §1

morningglory = assay: Test B pre/postemergence morningglory; type: in vivo, Ipomoea hederacea
Summary of the method: (§3)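 Response is a visual 0-to-10 score relative to untreated plants, where 0 means no effect and 10 means complete control, taken twelve to sixteen days after application. Treatments went onto soil at planting and onto foliage of 1- to 4-leaf plants, using a surfactant-containing non-phytotoxic solvent.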

rice = assay: Test B flood test rice; type: in vivo, Oryza sativa
Summary of the method: as §2

winter wheat [1] = assay: Test E winter wheat; type: in vivo, Triticum aestivum; details: Preemergence
wild oat = assay: Test E wild oat; type: in vivo, Avena fatua; details: Preemergence
winter wheat [2] = assay: Test E winter wheat; type: in vivo, Triticum aestivum; details: Postemergence
Summary of the method: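 Visual evaluation versus untreated controls after about 21 to 28 days in the greenhouse. Compound was in a surfactant-containing non-phytotoxic solvent; postemergence plants were treated at the 1- to 4-leaf stage, grown in a 60:40 sandy loam and potting mix blend.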

winter barley = assay: Test E winter barley; type: in vivo, Hordeum vulgare; details: Preemergence
giant foxtail = assay: Test B pre/postemergence giant foxtail; type: in vivo, Setaria faberii
Summary of the method: as §3

common pursiane = assay: Test D common purslane; type: in vivo, Portulaca oleracea; details: Preemergence, 0 to 100 scale
Summary of the method: as §1

green foxtail = assay: Test E green foxtail; type: in vivo, Setaria viridis; details: Preemergence
blackgrass = assay: Test E blackgrass; type: in vivo, Alopecurus myosuroides; details: Preemergence
[3] = Rate 16 g/ha, 0 no injury, 100 complete control
[4] = Rate 32 g/ha, 0 no injury, 100 complete control
[5] = Rate 64 g/ha, 0 no injury, 100 complete control
[6] = Rate 125 g/ha, 0 no injury, 100 complete control
[7] = Rate 62 g/ha, 0 to 100 scale, 0 no effect, 100 complete control
[8] = Rate 125 g/ha, 0 to 100 scale (0 no effect, 100 complete control)
[9] = Rate 250 g/ha, headed Pre-emergence (flood test species), scale 0 to 10 (0 no effect, 10 complete control)
[10] = Rate 500 g/ha, headed Pre-emergence (flood test species), scale 0 to 10 (0 no effect, 10 complete control)
[11] = Rate 1000 g/ha, Pre-emergence (as headed), scale 0 to 10
[12] = Rate 2000 g/ha, Pre-emergence (as headed), scale 0 to 10
[13] = Postemergence, Rate 125 g/ha, scale of 0 to 10 where 0 is no effect and 10 is complete control
[14] = Postemergence, Rate 250 g/ha, scale 0 to 10, 0 no effect, 10 complete control
[15] = Preemergence, Rate 62 g/ha, scale 0 to 10 (0 no effect, 10 complete control)
[16] = Preemergence, Rate 125 g/ha, scale 0 to 10 (0 no effect, 10 complete control)
[17] = Preemergence, Rate 250 g/ha, scale of 0 to 10 where 0 is no effect and 10 is complete control
[18] = Preemergence, Rate 500 g/ha, scale 0 to 10 (0 no effect, 10 complete control)
[19] = Rate 62 g/ha, Postemergence, scale of 0 to 10 where 0 is no effect and 10 is complete control
[20] = Rate 500 g/ha, Postemergence, scale 0 to 10, 0 no effect, 10 complete control
[21] = Rate 250 g/ha, Postemergence (flood test), scale 0 to 10, 0 is no effect, 10 is complete control
[22] = Rate 500 g/ha, listed under Postemergence (flood test species), scale 0 to 10, 0 no effect, 10 complete control
[23] = Rate 250 g/ha, 0 to 100 scale (0 no effect, 100 complete control)
[24] = Postemergence (flood test species), Rate 125 g/ha, scale of 0 to 10 where 0 is no effect and 10 is complete control
[25] = Rate 62 g/ha, Postemergence section, flood test species, scale of 0 to 10 where 0 is no effect and 10 is complete control

Compound: CCCn1c(=O)on(C(=O)N(c2ccc(Cl)cc2)C(C)C)c1=O [Compound 119]
- Plant response rating, Goosegrass (goosegrass; [3]): 30
- Plant response rating, Goosegrass (goosegrass; [4]): 85
- Plant response rating, Goosegrass (goosegrass; [5]): 98
- Plant response rating, Goosegrass (goosegrass; [6]): 100
- Plant response rating, Goosegrass (goosegrass; Rate 250 g/ha): 100
- Plant response rating, I. Ryegrass (Italian ryegrass; [7]): 10
- Plant response rating, I. Ryegrass (Italian ryegrass; [8]): 35
- Plant response rating, I. Ryegrass (Italian ryegrass; Rate 250 g/ha, 0 to 100 scale): 60
- Plant response rating, Sandbur (sandbur; [3]): 0
- Plant response rating, Sandbur (sandbur; [4]): 0
- Sandbur plant response rating (sandbur; [5]): 65
- Sandbur plant response rating (sandbur; [6]): 98
- Plant response rating, Sandbur (sandbur; Rate 250 g/ha): 100
- Ducksalad plant response rating (duck salad; [9]): 0
- Plant response rating, Ducksalad (duck salad; [10]): 0
- Ducksalad plant response rating (duck salad; [11]): 0
- Ducksalad plant response rating (duck salad; [12]): 0
- Plant response rating, Purple nutsedge (purple nutsedge; [3]): 0
- Plant response rating, Purple nutsedge (purple nutsedge; [4]): 0
- Purple nutsedge plant response rating (purple nutsedge; [5]): 0
- Purple nutsedge plant response rating (purple nutsedge; [6]): 0
- Plant response rating, Purple nutsedge (purple nutsedge; Rate 250 g/ha): 0
- Morningglory plant response rating (morningglory; [13]): 7
- Morningglory plant response rating (morningglory; [14]): 7
- Morningglory plant response rating (morningglory; [15]): 0
- Plant response rating, Morningglory (morningglory; [16]): 2
- Plant response rating, Morningglory (morningglory; [17]): 2
- Morningglory plant response rating (morningglory; [18]): 5
- Morningglory plant response rating (morningglory; [19]): 3
- Morningglory plant response rating (morningglory; [20]): 8
- Plant response rating, Rice (rice; [21]): 0
- Rice plant response rating (rice; [9]): 0
- Plant response rating, Rice (rice; [10]): 0
- Rice plant response rating (rice; [22]): 0
- Rice plant response rating (rice; [11]): 0
- Rice plant response rating (rice; [12]): 0
- Plant response rating, Wheat (winter) (winter wheat [1]; [7]): 0
- Plant response rating, Wheat (winter) (winter wheat [1]; [8]): 20
- Plant response rating, Wheat (winter) (winter wheat [1]; Rate 250 g/ha, 0 to 100 scale): 30
- Plant response rating, Wild oat (wild oat; [7]): 20
- Plant response rating, Wild oat (wild oat; [8]): 10
- Plant response rating, Wheat (winter) (winter wheat [2]; Rate 62 g/ha, 0 to 100 scale): 10
- Plant response rating, Wheat (winter) (winter wheat [2]; Rate 125 g/ha, 0 to 100 scale): 10
- Plant response rating, Wheat (winter) (winter wheat [2]; [23]): 20
- Plant response rating, Barley (winter) (winter barley; [7]): 5
- Plant response rating, Barley (winter) (winter barley; [8]): 10
- Plant response rating, Barley (winter) (winter barley; Rate 250 g/ha, 0 to 100 scale): 10
- Giant foxtail plant response rating (giant foxtail; [13]): 8
- Giant foxtail plant response rating (giant foxtail; [14]): 8
- Giant foxtail plant response rating (giant foxtail; [15]): 9
- Plant response rating, Giant foxtail (giant foxtail; [16]): 10
- Plant response rating, Giant foxtail (giant foxtail; [17]): 10
- Giant foxtail plant response rating (giant foxtail; [18]): 10
- Giant foxtail plant response rating (giant foxtail; [19]): 8
- Giant foxtail plant response rating (giant foxtail; [20]): 8
- Plant response rating, C. purslane (common pursiane; [3]): 0
- Plant response rating, C. purslane (common pursiane; [4]): 0
- Plant response rating, C. purslane (common pursiane; [5]): 0
- Plant response rating, C. purslane (common pursiane; [6]): 0
- Plant response rating, C. purslane (common pursiane; Rate 250 g/ha): 0
- Plant response rating, Green foxtail (green foxtail; [7]): 10
- Plant response rating, Green foxtail (green foxtail; [8]): 50
- Plant response rating, Green foxtail (green foxtail; Rate 250 g/ha, 0 to 100 scale): 60
- Plant response rating, Blackgrass (blackgrass; [7]): 20
- Plant response rating, Blackgrass (blackgrass; [8]): 10
- Plant response rating, Blackgrass (blackgrass; Rate 250 g/ha, 0 to 100 scale): 50

Compound: CC(C)N(C(=O)n1oc(=O)n(C2CCCCC2)c1=O)c1ccc(F)cc1 [Compound 110]
- Plant response rating, Goosegrass (goosegrass; Rate 250 g/ha): 100
- Plant response rating, Goosegrass (goosegrass; Rate 500 g/ha): 100
- Plant response rating, I. Ryegrass (Italian ryegrass; [7]): 0
- Plant response rating, I. Ryegrass (Italian ryegrass; [8]): 0
- Plant response rating, I. Ryegrass (Italian ryegrass; Rate 250 g/ha, 0 to 100 scale): 20
- Plant response rating, Sandbur (sandbur; Rate 250 g/ha): 98
- Plant response rating, Sandbur (sandbur; Rate 500 g/ha): 98
- Ducksalad plant response rating (duck salad; [24]): 0
- Ducksalad plant response rating (duck salad; [25]): 0
- Ducksalad plant response rating (duck salad; [22]): 0
- Ducksalad plant response rating (duck salad; flood test, listed under Postemergence, Rate 250 g/ha, scale 0 to 10, 0 no effect, 10 complete control): 0
- Plant response rating, Purple nutsedge (purple nutsedge; Rate 250 g/ha): 0
- Plant response rating, Purple nutsedge (purple nutsedge; Rate 500 g/ha): 0
- Morningglory plant response rating (morningglory; [13]): 5
- Morningglory plant response rating (morningglory; [14]): 5
- Morningglory plant response rating (morningglory; [15]): 0
- Plant response rating, Morningglory (morningglory; [16]): 0
- Plant response rating, Morningglory (morningglory; [17]): 0
- Morningglory plant response rating (morningglory; [18]): 0
- Morningglory plant response rating (morningglory; [19]): 4
- Morningglory plant response rating (morningglory; [20]): 5
- Rice plant response rating (rice; [24]): 0
- Rice plant response rating (rice; [25]): 0
- Plant response rating, Rice (rice; [21]): 0
- Rice plant response rating (rice; [22]): 0
- Plant response rating, Wheat (winter) (winter wheat [1]; [7]): 0
- Plant response rating, Wheat (winter) (winter wheat [1]; [8]): 0
- Plant response rating, Wheat (winter) (winter wheat [1]; Rate 250 g/ha, 0 to 100 scale): 0
- Plant response rating, Wild oat (wild oat; [7]): 0
- Plant response rating, Wild oat (wild oat; [8]): 0
- Plant response rating, Wheat (winter) (winter wheat [2]; Rate 62 g/ha, 0 to 100 scale): 0
- Plant response rating, Wheat (winter) (winter wheat [2]; Rate 125 g/ha, 0 to 100 scale): 0
- Plant response rating, Wheat (winter) (winter wheat [2]; [23]): 0
- Plant response rating, Barley (winter) (winter barley; [7]): 0
- Plant response rating, Barley (winter) (winter barley; [8]): 0
- Plant response rating, Barley (winter) (winter barley; Rate 250 g/ha, 0 to 100 scale): 5
- Giant foxtail plant response rating (giant foxtail; [13]): 2
- Giant foxtail plant response rating (giant foxtail; [14]): 5
- Giant foxtail plant response rating (giant foxtail; [15]): 10
- Plant response rating, Giant foxtail (giant foxtail; [16]): 10
- Plant response rating, Giant foxtail (giant foxtail; [17]): 10
- Giant foxtail plant response rating (giant foxtail; [18]): 10
- Giant foxtail plant response rating (giant foxtail; [19]): 0
- Giant foxtail plant response rating (giant foxtail; [20]): 8
- Plant response rating, C. purslane (common pursiane; Rate 250 g/ha): 0
- Plant response rating, C. purslane (common pursiane; Rate 500 g/ha): 0
- Plant response rating, Green foxtail (green foxtail; [7]): 30
- Plant response rating, Green foxtail (green foxtail; [8]): 60
- Plant response rating, Green foxtail (green foxtail; Rate 250 g/ha, 0 to 100 scale): 85
- Plant response rating, Blackgrass (blackgrass; [7]): 20
- Plant response rating, Blackgrass (blackgrass; [8]): 50
- Plant response rating, Blackgrass (blackgrass; Rate 250 g/ha, 0 to 100 scale): 60
